Laboratory results as given in PubChem BioAssay AID248 (DTP/NCI, 2004).
Several values for one entry are separate records, joined by “and”; a condition that tells them apart may be missing. Equal entries are not always repeated. Inconclusive results and toxic doses are left out.

System: L1210 leukemia ip in BDF1 mice, survival T/C
Assay: NCI In Vivo Anticancer Drug Screen. Data for tumor model L1210 Leukemia (intraperitoneal) in B6D2F1 (BDF1) mice
Settings: endpoint: mean survival time, higher = longer survival
How it was run: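 Value reflects the ratio of survival in compound-treated mice to survival in vehicle-treated controls, with both groups carrying the same transplanted tumor.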

[1] = dose: 200.0 mg/kg/injection, schedule: Q01DX001 (ip), vehicle: saline
[2] = dose: 200.0 mg/kg/injection, schedule: Q01DX009 (ip), vehicle: saline with Tween-80
[3] = dose: 100.0 mg/kg/injection, schedule: Q01DX009 (ip), vehicle: Klucel (hydroxypropylcellulose) (HPC)
[4] = dose: 200.0 mg/kg/injection, schedule: Q01DX009 (ip), vehicle: Klucel (hydroxypropylcellulose) (HPC)
[5] = dose: 400.0 mg/kg/injection, schedule: Q01DX009 (ip), vehicle: Klucel (hydroxypropylcellulose) (HPC)
[6] = dose: 100.0 mg/kg/injection, schedule: Q04DX002 (ip), vehicle: saline with Tween-80

Question: What does the source list for CNS(=O)(=O)c1ncnc2nc[nH]c12?
Answer: T/C (dose: 3.0 mg/kg/injection, schedule: Q01DX Z (ip), vehicle: carboxymethylcellulose (CMC)): 113 % of control; T/C (dose: 6.0 mg/kg/injection, schedule: Q01DX Z (ip), vehicle: carboxymethylcellulose (CMC)): 115 % of control; T/C (dose: 12.0 mg/kg/injection, schedule: Q01DX Z (ip), vehicle: carboxymethylcellulose (CMC)): 119 % of control; T/C (dose: 22.0 mg/kg/injection, schedule: Q01DX Z (ip), vehicle: carboxymethylcellulose (CMC)): 100 % of control; T/C (dose: 25.0 mg/kg/injection, schedule: Q01DX Z (ip), vehicle: carboxymethylcellulose (CMC)): 117 % of control; T/C (dose: 33.0 mg/kg/injection, schedule: Q01DX Z (ip), vehicle: carboxymethylcellulose (CMC)): 100 % of control; T/C (dose: 50.0 mg/kg/injection, schedule: Q01DX009 (ip), vehicle: saline with Tween-80): 115 % of control; T/C (dose: 50.0 mg/kg/injection, schedule: Q01DX Z (ip), vehicle: carboxymethylcellulose (CMC)): 121 % of control; T/C (dose: 75.0 mg/kg/injection, schedule: Q01DX Z (ip), vehicle: carboxymethylcellulose (CMC)): 121 % of control; T/C (dose: 100.0 mg/kg/injection, schedule: Q01DX001 (ip), vehicle: acetone): 100 % of control; T/C (dose: 132.0 mg/kg/injection, schedule: Q01DX001 (ip), vehicle: saline): 112 % of control and 88 % of control; T/C (dose: 132.0 mg/kg/injection, schedule: Q01DX009 (ip), vehicle: saline with Tween-80): 112 % of control; T/C (dose: 132.0 mg/kg/injection, schedule: Q01DX009 (ip), vehicle: saline): 110 % of control; T/C (dose: 132.0 mg/kg/injection, schedule: Q04DX003 (ip), vehicle: saline): 121 % of control; T/C (dose: 200.0 mg/kg/injection, schedule: Q01DX001 (ip), vehicle: acetone): 182 % of control; T/C [1]: 103 % of control and 108 % of control; T/C [2]: 162 % of control; T/C (dose: 200.0 mg/kg/injection, schedule: Q04DX003 (ip), vehicle: saline): 122 % of control; T/C (dose: 300.0 mg/kg/injection, schedule: Q01DX001 (ip), vehicle: saline): 101 % of control and 103 % of control; T/C (dose: 300.0 mg/kg/injection, schedule: Q01DX009 (ip), vehicle: saline): 117 % of control

Question: With COc1ccc(/C=N/NC(=O)c2ccccc2NC(=O)c2ccccc2Cl)cc1 as the molecule, how does the T/C (dose: 50.0 mg/kg/injection, schedule: Q01DX009 (ip), vehicle: Klucel (hydroxypropylcellulose) (HPC)) read?
Answer: Its T/C is 91 % of control.

Question: And the T/C [3]?
Answer: Its T/C is 107 % of control and 91 % of control.

Question: And the T/C [4]?
Answer: The T/C was 102 % of control.

Question: And the T/C [5]?
Answer: Its T/C is 98 % of control and 91 % of control.

Question: With FC(F)(F)c1ccc2c(c1)N(CCCN1CCN(CCN3CCCCC3)CC1)c1ccccc1S2 as the molecule, how does the T/C (dose: 12.5 mg/kg/injection, schedule: Q01DX009 (ip), vehicle: saline) read?
Answer: Its T/C is 93 % of control.

Question: And the T/C (dose: 12.5 mg/kg/injection, schedule: Q04DX003 (ip), vehicle: saline)?
Answer: Its T/C is 94 % of control.

Question: What about the T/C (dose: 25.0 mg/kg/injection, schedule: Q01DX009 (ip), vehicle: saline) of the same molecule?
Answer: Its T/C is 86 % of control.

Question: What about the T/C (dose: 25.0 mg/kg/injection, schedule: Q04DX003 (ip), vehicle: saline) of the same molecule?
Answer: The T/C was 96 % of control.

Question: What about the T/C (dose: 50.0 mg/kg/injection, schedule: Q04DX003 (ip), vehicle: saline) of the same molecule?
Answer: The T/C was 92 % of control.

Question: For O=Cc1nc2ccccc2c2ccccc12, which T/C (dose: 100.0 mg/kg/injection, schedule: Q04DX003 (ip), vehicle: saline with Tween-80) is on record?
Answer: Its T/C is 89 % of control.

Question: What about the T/C (dose: 200.0 mg/kg/injection, schedule: Q04DX003 (ip), vehicle: saline with Tween-80) of the same molecule?
Answer: Its T/C is 94 % of control.

Question: What about the T/C (dose: 400.0 mg/kg/injection, schedule: Q04DX003 (ip), vehicle: saline with Tween-80) of the same molecule?
Answer: Its T/C is 103 % of control.

Question: For CC(=O)OCC1OC(n2cc(C)c(=O)[nH]c2=O)C(NC(=O)C(Cl)(Cl)Cl)C(OC(C)=O)C1OC(C)=O (stereo not drawn), which T/C (dose: 50.0 mg/kg/injection, schedule: Q01DX001 (ip), vehicle: carboxymethylcellulose (CMC)) is on record?
Answer: The T/C was 105 % of control.

Question: What about the T/C (dose: 100.0 mg/kg/injection, schedule: Q01DX001 (ip), vehicle: carboxymethylcellulose (CMC)) of the same molecule?
Answer: The T/C was 96 % of control.

Question: What about the T/C (dose: 200.0 mg/kg/injection, schedule: Q01DX001 (ip), vehicle: carboxymethylcellulose (CMC)) of the same molecule?
Answer: The T/C was 100 % of control.

Question: And the T/C (dose: 400.0 mg/kg/injection, schedule: Q01DX001 (ip), vehicle: carboxymethylcellulose (CMC))?
Answer: Its T/C is 103 % of control.

Question: Which results are given for CC(=O)Oc1c(F)c(F)c(F)c(F)c1F?
Answer: T/C (dose: 25.0 mg/kg/injection, schedule: Q04DX002 (ip), vehicle: saline with Tween-80): 87 % of control; T/C (dose: 50.0 mg/kg/injection, schedule: Q04DX002 (ip), vehicle: saline with Tween-80): 90 % of control; T/C [6]: 93 % of control

Question: With O=C(O)C(CCc1ccccc1)(CCc1ccccc1)C(=O)O as the molecule, how does the T/C (dose: 100.0 mg/kg/injection, schedule: Q01DX009 (ip), vehicle: saline) read?
Answer: Its T/C is 95 % of control.

Question: And the T/C (dose: 200.0 mg/kg/injection, schedule: Q01DX009 (ip), vehicle: saline)?
Answer: Its T/C is 94 % of control.

Question: What about the T/C (dose: 400.0 mg/kg/injection, schedule: Q01DX009 (ip), vehicle: saline) of the same molecule?
Answer: The T/C was 111 % of control.

Question: Cc1ccc(CC(=S)N2CCOCC2)cc1 was tested. Which T/C (dose: 100.0 mg/kg/injection, schedule: Q01DX001 (ip), vehicle: steriod suspending solution) did it give?
Answer: Its T/C is 95 % of control.

Question: What about the T/C (dose: 200.0 mg/kg/injection, schedule: Q01DX001 (ip), vehicle: steriod suspending solution) of the same molecule?
Answer: Its T/C is 98 % of control.

Question: And the T/C (dose: 400.0 mg/kg/injection, schedule: Q01DX001 (ip), vehicle: steriod suspending solution)?
Answer: Its T/C is 96 % of control.

Question: For CCOC(=O)C(C(=O)OCC)N(C(=O)C(Cl)Cl)c1ccccc1, which T/C (dose: 100.0 mg/kg/injection, schedule: Q04DX003 (ip), vehicle: other) is on record?
Answer: Its T/C is 97 % of control.

Question: What about the T/C (dose: 200.0 mg/kg/injection, schedule: Q04DX003 (ip), vehicle: other) of the same molecule?
Answer: The T/C was 96 % of control.

Question: And the T/C (dose: 400.0 mg/kg/injection, schedule: Q04DX003 (ip), vehicle: other)?
Answer: Its T/C is 94 % of control.

Question: What does the source list for CNC(=O)Oc1ccc([N+](C)(C)C)cc1?
Answer: T/C (dose: 9.5 mg/kg/injection, schedule: Q01DX001 (ip), vehicle: saline): 109 % of control; T/C (dose: 19.0 mg/kg/injection, schedule: Q01DX001 (ip), vehicle: saline): 100 % of control

Question: CCOC(=O)C1Nc2ccc3ccccc3c2NC1=O (stereo not drawn) was tested. Which T/C (dose: 50.0 mg/kg/injection, schedule: Q04DX002 (ip), vehicle: Klucel (hydroxypropylcellulose) (HPC)) did it give?
Answer: The T/C was 93 % of control.

Question: What about the T/C (dose: 100.0 mg/kg/injection, schedule: Q04DX002 (ip), vehicle: Klucel (hydroxypropylcellulose) (HPC)) of the same molecule?
Answer: Its T/C is 97 % of control.

Question: And the T/C (dose: 200.0 mg/kg/injection, schedule: Q04DX002 (ip), vehicle: Klucel (hydroxypropylcellulose) (HPC))?
Answer: Its T/C is 90 % of control.

Question: Which results are given for O=C1c2ccccc2C(=O)c2cc3nc4c5ccccc5c5ccccc5c4nc3cc21?
Answer: T/C (dose: 100.0 mg/kg/injection, schedule: Q01DX009 (ip), vehicle: saline with Tween-80): 93 % of control; T/C [6]: 103 % of control; T/C [2]: 90 % of control; T/C (dose: 200.0 mg/kg/injection, schedule: Q04DX002 (ip), vehicle: saline with Tween-80): 97 % of control; T/C (dose: 400.0 mg/kg/injection, schedule: Q01DX009 (ip), vehicle: saline with Tween-80): 97 % of control; T/C (dose: 400.0 mg/kg/injection, schedule: Q04DX002 (ip), vehicle: saline with Tween-80): 100 % of control

Question: Cc1cc(Br)nc2ccccc12 was tested. Which T/C (dose: 100.0 mg/kg/injection, schedule: Q01DX001 (ip), vehicle: saline) did it give?
Answer: The T/C was 92 % of control.

Question: What about the T/C [1] of the same molecule?
Answer: The T/C was 89 % of control.

Question: And the T/C (dose: 400.0 mg/kg/injection, schedule: Q01DX001 (ip), vehicle: saline)?
Answer: The T/C was 97 % of control.

Question: How did the T/C [3] turn out when CC(=O)c1cccc(NC(=O)Nc2cccc(F)c2)c1 was run?
Answer: Its T/C is 103 % of control.

Question: And the T/C [4]?
Answer: The T/C was 97 % of control.

Question: What about the T/C [5] of the same molecule?
Answer: The T/C was 110 % of control.

Question: Which results are given for CCOc1ccc(-n2c(=O)c(N=Nc3ccc(Cl)cc3)c(O)n(-c3ccc(C)cc3)c2=S)cc1?
Answer: T/C (dose: 100.0 mg/kg/injection, schedule: Q01DX001 (ip), vehicle: Klucel (hydroxypropylcellulose) (HPC)): 100 % of control; T/C (dose: 200.0 mg/kg/injection, schedule: Q01DX001 (ip), vehicle: Klucel (hydroxypropylcellulose) (HPC)): 107 % of control; T/C (dose: 400.0 mg/kg/injection, schedule: Q01DX001 (ip), vehicle: Klucel (hydroxypropylcellulose) (HPC)): 100 % of control
